Test results taken from article PMC10065799, “High-throughput profiling of sequence recognition by tyrosine kinases and SH2 domains using bacterial peptide display” (eLife, 2023).

Assays:
Experiment in all cases: pTyr-Var library bacterial peptide display kinase screen (enrichment scores)
c-Src kinase domain = c-Src kinase domain (Homo sapiens, UniProt P12931); type: biochemical; conditions: sheet "Src";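 further: log2 fold change in enrichment of variant over reference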
Fer kinase domain = type: biochemical, mouse; conditions: sheet "Fer"
c-Abl kinase domain = target: T1, c-Abl kinase domain (Mus musculus, UniProt P00520); type: biochemical;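 on screen: log2 fold change in enrichment of variant over reference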
T1 sequence (P00520 242-493 limits assumed): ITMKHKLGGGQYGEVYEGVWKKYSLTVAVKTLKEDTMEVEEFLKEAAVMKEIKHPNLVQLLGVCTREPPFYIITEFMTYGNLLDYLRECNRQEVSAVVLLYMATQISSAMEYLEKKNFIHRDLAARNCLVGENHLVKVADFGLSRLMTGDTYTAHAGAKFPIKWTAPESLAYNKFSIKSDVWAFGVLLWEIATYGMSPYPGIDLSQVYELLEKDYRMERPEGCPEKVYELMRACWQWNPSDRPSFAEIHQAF

EPHB2 kinase domain = type: biochemical, human; conditions: sheet EPHB2; effect of variant peptide relative to its reference peptide in the pTyr-Var library screen (enrichment scores)
[1] = variant peptide versus its reference peptide in the pTyr-Var library screen
[2] = value of the variant peptide against its reference peptide in the pTyr-Var library screen with Fer
[3] = effect of the variant peptide relative to its reference peptide in the pTyr-Var library screen
[4] = sheet "Abl", effect of variant peptide relative to its reference peptide in pTyr-Var library screen (enrichment)
[5] = fig5-data2, sheet "Abl", Screen for the variant/reference peptide pair, pTyr-Var library

NTGGFYDLFGG [PTPN11_Y63_D61G_YF]
Screen (c-Src kinase domain; [1]): -0.08944
Screen (Fer kinase domain; [2]): 1.072

PRDGEYFTLQI [TP53_Y327_L323R]
Screen (c-Src kinase domain; [1]): -0.0193

FVSLIYTNFEA [GSTP1_Y109_I105V_YF]
Screen (c-Src kinase domain; [3]): 0.3433
Screen (Fer kinase domain; [2]): 0.7121

ELAVNYQEQAS [SLC9A9_Y591_I589V]
Screen (c-Abl kinase domain; [4]): 1.481

DFFDLYGGQKF [PTPN11_Y66_E69Q_YF]
Screen (c-Src kinase domain; [1]): 1.294

PVQAVYQKVVA [HBB_Y131_A130V]
Screen (c-Src kinase domain; [3]): 1.787

QDLLLYQTHSE [PKHD1_Y255_F253L]
Screen (c-Src kinase domain; [1]): 0.9307
Screen (Fer kinase domain; [2]): 1.348
Screen (EPHB2 kinase domain): 1.452

MASISYDFCRV [BST2_Y6_T4I_YF]
Screen (Fer kinase domain; [2]): -0.4486

LEQDEYALHSH [HADHB_Y244_R247H]
Screen (EPHB2 kinase domain): -1.049

KTGDFYDLFGG [PTPN11_Y63_N58K_YF]
Screen (c-Src kinase domain; [1]): -0.7427
Screen (Fer kinase domain; variant peptide relative to its reference peptide, pTyr-Var library screen enrichment): -1.345

PIGRKYKKVRF [F8_Y442_R437P]
Screen (c-Abl kinase domain; [5]): 0.1866

AALRLYHVSDS [VIL1_Y256_K254R]
Screen (c-Abl kinase domain; [4]): 2.11

GMTLSYLFWEP [NDUFS8_Y74_R77W]
Screen (Fer kinase domain; [2]): 3.343

PLCPDYQEPSR [DDR2_Y481_R478C]
Screen (EPHB2 kinase domain): 1.681

QLQVFYATRDQ [MIPEP_Y579_L582R]
Screen (c-Src kinase domain; [3]): -2.05
Screen (Fer kinase domain; [2]): -2.265
Screen (EPHB2 kinase domain): -1.278

LAVNPYGPPDL [TTN_Y22579_P22584L]
Screen (c-Abl kinase domain; [4]): -1.7

QPRDIYHQTWA [GBA_Y244_G241R]
Screen (c-Src kinase domain; [3]): -0.7899

LVRAFYCERRW [CARD11_Y970_R975W]
Screen (EPHB2 kinase domain): -0.93

PNRILYGDFQQ [MYH7_Y715_R719Q]
Screen (c-Src kinase domain; [1]): -0.8592

SLDLSYFHTSS [EMD_Y181_P183H_YF]
Screen (c-Abl kinase domain; [5]): -1.954

QRVLLYVQRET [GRHL3_Y518_R520Q]
Screen (c-Abl kinase domain; [5]): -0.6307

PSSRDYKDNIK [PIGN_Y227_H229D]
Screen (c-Abl kinase domain; [5]): -1.292

KFADVYVGICL [B3GALNT1_Y269_E266A]
Screen (c-Src kinase domain; [3]): -1.369
Screen (Fer kinase domain; [2]): -1.445

FQKDVYNIPPS [NEDD9_Y177_D178N_YF]
Screen (c-Src kinase domain; [1]): -0.2537
Screen (EPHB2 kinase domain): -2.279

DPNQQYFIAMD [TBX15_Y159_H156N_YF]
Screen (c-Abl kinase domain; [4]): -1.397

GDEVEYMSVSF [GCLC_Y53_L55S]
Screen (Fer kinase domain; [2]): -1.292

LINSVYGCSRQ [TMPRSS6_Y290_T287N]
Screen (c-Src kinase domain; [1]): 1.631

LPEHPYHSRPR [NDUFA8_Y142_N140H]
Screen (c-Src kinase domain; [1]): -0.5324
Screen (c-Abl kinase domain; [5]): -0.8491
Screen (EPHB2 kinase domain): 1.643

PADQAYSWFQH [NDST1_Y711_R709Q_YF]
Screen (c-Src kinase domain; [1]): 1.532
Screen (Fer kinase domain; [2]): 0.5054

VKANTYEKFWL [GATM_Y100_P105L_YF]
Screen (c-Src kinase domain; [3]): -1.276
Screen (Fer kinase domain; [2]): 2.288

GEFFRYLAEVA [YWHAG_Y133_D129E_YF]
Screen (c-Abl kinase domain; [4]): 3.326

RKETFYILSCR [GUCY2C_Y681_T682I]
Screen (c-Src kinase domain; [3]): -2.18

VVQGLYKSMRK [KBTBD2_Y250_P254R]
Screen (c-Abl kinase domain; [5]): 0.59

FLLRVYSIFSK [SGCE_Y38_T36R]
Screen (c-Src kinase domain; [1]): -1.068

IVTLKYPIEHG [ACTB_Y69_L65V]
Screen (c-Abl kinase domain; [5]): -1.416

EWLRRYLKNGK [HLA-C_Y195_E197K]
Screen (c-Abl kinase domain; [5]): -0.1377

EDKFMYLEFPQ [PTEN_Y240_F241L]
Screen (c-Src kinase domain; [1]): -1.097

TKGNEYVFRVA [TTN_Y30829_E30825K]
Screen (c-Abl kinase domain; [4]): -2.941

RVSSVYTRSTG [CCR5_Y339_A335V]
Screen (c-Abl kinase domain; [5]): 1.763

KACNPYKPPGP [TTN_Y25826_T25821K]
Screen (c-Abl kinase domain; [4]): -2.971

NVSILYTASQA [CTNNA1_Y222_P219S]
Screen (c-Abl kinase domain; [5]): -0.9911

KMKGEYFRFLA [YWHAG_Y130_D129E_YF]
Screen (c-Src kinase domain; [1]): 0.3869
Screen (c-Abl kinase domain; [4]): -2.114

HPAGNYSLSSV [ARFGAP3_Y473_Q468H]
Screen (c-Abl kinase domain; [5]): -0.2234

QHVPDYRQNGF [PCDHGA1_Y890_V894G_YF]
Screen (c-Abl kinase domain; [5]): -1.497

KAEQLYIGVTV [EFHC2_Y509_E507Q]
Screen (c-Src kinase domain; [3]): 0.06421
Screen (Fer kinase domain; [2]): 0.3011

LHVKMYNFLRS [ADGRG7_Y760_R756H]
Screen (EPHB2 kinase domain): -0.4432

SFSGEYGSGGG [ZG16_Y30_G32S_YF]
Screen (c-Abl kinase domain; [4]): -2.078

AVARMYGVLPW [PLP1_Y207_D203V]
Screen (c-Src kinase domain; [1]): -1.597
Screen (EPHB2 kinase domain): -2.007

ARKCKYFKKHE [NFIX_Y40_R38C]
Screen (c-Abl kinase domain; [5]): 1.494

FSSLGYPLPEG [ZSWIM4_Y87_P89L_YF]
Screen (c-Abl kinase domain; [4]): 1.474

PHMQTYEVDHN [SDHB_Y61_L65H]
Screen (EPHB2 kinase domain): 0.7041

GCKNRYDEDKP [THAP1_Y14_K16E]
Screen (c-Abl kinase domain; [4]): 1.101

EFRFIYMAVQH [PTPN11_Y515_Q510E_YF]
Screen (c-Src kinase domain; [1]): 0.0506

DWWQEYVLNES [TGM1_Y267_R264W]
Screen (c-Src kinase domain; [1]): 1.594

PVADPYDQSFE [P38A Y323]
Enrichment score (mean) (c-Abl kinase domain; pTyr-Var library bacterial peptide display screen with c-Abl, 11-residue peptides (SITE_+/-5_AA) of annotated Abl substrate sites, sheet "Abl substrates", mean): 2.375

IVRSLYEDQED [VHL_Y185_L188Q]
Screen (c-Abl kinase domain; [4]): 2.774

LITTLYISFLG [KCNQ1_Y267_G269S]
Screen (c-Src kinase domain; [3]): -1.106

SLIDMYSEVLA [OPA1_Y268_D273A]
Screen (c-Src kinase domain; [1]): 1.458

EALDFYGEVRI [PTEN_Y155_T160I]
Screen (Fer kinase domain; [2]): 1.122

HGEAVYSRDCV [XPC_Y676_R671H]
Screen (c-Src kinase domain; [1]): 0.7041
Screen (c-Abl kinase domain; [4]): 1.031

LWQSIYNLDAE [TNNT2_Y251_E254D]
Screen (c-Src kinase domain; [1]): 0.02036

PGVNFYFQVSA [TTN_Y28166_R28168Q_YF]
Screen (c-Abl kinase domain; [4]): -2.22

TKDTFYQQPMF [GBA_Y451_K452Q]
Screen (Fer kinase domain; [2]): 2.731
Screen (EPHB2 kinase domain): 1.843

KGEDFYFVTCH [FHL1_Y149_C150Y_YF]
Screen (c-Abl kinase domain; [5]): -2.007

EAVKNYTEKRG [PBRM1_Y672_D674E]
Screen (c-Abl kinase domain; [5]): -0.8395

GLTSTYVGIRK [ROBO1_Y932_A933V]
Screen (c-Src kinase domain; [1]): -1.42

ADGLEYPRTGL [MMUT_Y287_S288P]
Screen (EPHB2 kinase domain): -1.339

FCRHNYGVGES [HLA-DRB1_Y112_V115G_YF]
Screen (EPHB2 kinase domain): -2.304

NSAFFYKTAEE [CCT6B_Y250_G247A]
Screen (c-Abl kinase domain; [5]): 0.06962

KGEDFYSVTCH [FHL1_Y149_C150S]
Screen (c-Src kinase domain; [3]): 2.7
Screen (Fer kinase domain; [2]): 2.793

ACQSLYGGFVE [MVD_Y164_R161Q]
Screen (c-Src kinase domain; [3]): 0.09261
Screen (EPHB2 kinase domain): 1.328

EAGKVYLKAAM [CBFB_Y96_P100A]
Screen (c-Abl kinase domain; [5]): 0.4405

TNFSLYLRSLE [MTM1_Y71_R69S_YF]
Screen (c-Abl kinase domain; [5]): -0.4541

QKKPCYEIRWK [PDGFRB_Y562_R561C]
Screen (c-Abl kinase domain; [5]): 0.01021

REETTYLPLTS [ICAM3_Y527_S525T]
Screen (c-Src kinase domain; [3]): -0.5459

VKFGAYINDFK [GLB1_Y488_N484K_YF]
Screen (c-Abl kinase domain; [5]): -0.5379

LLEGKYEWQEV [CDKN1B_Y74_P69L]
Screen (Fer kinase domain; [2]): 1.551

TKLKDYFIFNK [CCDC42_Y149_A144T_YF]
Screen (c-Abl kinase domain; [5]): -0.5052

RGVVMYTSKDR [ZG16B_Y136_M133V]
Screen (c-Abl kinase domain; [4]): -3.766

SENFTYIWWLN [PSG4_Y271_K267E_YF]
Screen (c-Abl kinase domain; [5]): 0.9727

AGARMYGVLPW [PLP1_Y207_D203G]
Screen (c-Src kinase domain; [1]): -0.8816
Screen (EPHB2 kinase domain): -1.831

LTVVIYVLVGR [EPHA3_Y561_I564V]
Screen (Fer kinase domain; [2]): -2.144
Screen (EPHB2 kinase domain): -4.573

HCFAAYFQQGD [GPI_Y351_R347C]
Screen (c-Abl kinase domain; [5]): 0.663

DTQNSYWCATS [TSC1_Y304_G305W]
Screen (c-Abl kinase domain; [4]): 1.58

SKLTIYDGRPS [MTM1_Y277_A279G]
Screen (c-Src kinase domain; [3]): -1.75

PNRILYRDFRQ [MYH7_Y715_G716R]
Screen (c-Src kinase domain; [1]): -3.613

GQLIVYAPPEW [CNTN6_Y315_F314V]
Screen (c-Src kinase domain; [3]): 1.101
Screen (Fer kinase domain; [2]): -1.619
Screen (EPHB2 kinase domain): -0.7681

VQEDIYDEFVV [ALDH2_Y332_E337V]
Screen (c-Src kinase domain; [3]): 0.8946
Screen (Fer kinase domain; [2]): 3.107
